# Experimental data taken from patent publication US9745360B2 (Sanofi, priority 2012, dated 2017).
# Where two headings read alike, the source gives them in different places. *1 amine or outer side, *2 acyl side, *3 side chain or, on linkers, in order; H or OH if unused. Where a SMILES comes first, the peptide text is derived from it. Side-chain parts run from the residue outwards. [ ]: non-standard residue; d: D form. The star is where a group is joined. γGlu = O=C(O)[C@H](CCC(=O)[*:2])N[*:1]; Stearoyl = CCCCCCCCCCCCCCCCCC(=O)*; Palmitoyl = CCCCCCCCCCCCCCCC(=O)*; d(αMeK) = C[C@@](N)(CCCCN)C(=O)O; αMeOrn = C[C@](N)(CCCN)C(=O)O; Aib = CC(C)(N)C(=O)O
# How the values were obtained:
# [1] = biological target: T1, human GIP receptor (hGIP R) (Homo sapiens, UniProt P48546); test: cAMP response (HTRF) of HEK-293 cells stably expressing human GIP receptor; format: cell-based; conditions: Table 7; cAMP formation
# T1 construct: expressed in transfected cells
# T1 sequence (P48546 22-466): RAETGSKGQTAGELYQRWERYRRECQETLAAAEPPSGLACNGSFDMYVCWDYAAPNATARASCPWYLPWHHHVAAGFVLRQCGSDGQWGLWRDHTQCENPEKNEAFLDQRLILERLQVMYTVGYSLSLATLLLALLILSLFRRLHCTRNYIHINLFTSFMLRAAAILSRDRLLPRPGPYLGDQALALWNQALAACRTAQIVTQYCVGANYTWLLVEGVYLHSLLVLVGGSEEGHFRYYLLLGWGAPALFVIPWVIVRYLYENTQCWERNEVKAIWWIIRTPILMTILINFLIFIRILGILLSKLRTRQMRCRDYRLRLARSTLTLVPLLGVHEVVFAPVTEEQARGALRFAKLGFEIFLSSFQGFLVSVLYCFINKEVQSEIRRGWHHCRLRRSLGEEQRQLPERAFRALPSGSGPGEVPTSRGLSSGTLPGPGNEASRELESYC
# Description: (§1) cAMP content of cells was determined using a kit from Cisbio Corp. (cat. no. 62AM4PEC) based on HTRF (Homogenous Time Resolved Fluorescence). For preparation, cells were split into T175 culture flasks and grown overnight to near confluency in medium (DMEM/10% FBS). Medium was then removed and cells washed with PBS lacking calcium and magnesium, followed by proteinase treatment with accutase (Sigma-Aldrich cat. no. A6964). Detached cells were washed and resuspended in assay buffer (1×HBSS; 20 mM HEPES, 0.1% BSA, 2 mM IBMX) and cellular density determined. They were then diluted to 400000 cells/ml and 25 μl-aliquots dispensed into the wells of 96-well plates. For measurement, 25 μl of test compound in assay buffer was added to the wells, followed by incubation for 30 minutes at room temperature.
# [2] = biological target: T2, human GLP-1 receptor (hGLP-1 R) (Homo sapiens, UniProt P43220); test: cAMP response (HTRF) of HEK-293 cells stably expressing human GLP-1 receptor; format: cell-based; conditions: Table 7; cAMP formation
# T2 construct: expressed in transfected cells
# T2 sequence (P43220 24-463): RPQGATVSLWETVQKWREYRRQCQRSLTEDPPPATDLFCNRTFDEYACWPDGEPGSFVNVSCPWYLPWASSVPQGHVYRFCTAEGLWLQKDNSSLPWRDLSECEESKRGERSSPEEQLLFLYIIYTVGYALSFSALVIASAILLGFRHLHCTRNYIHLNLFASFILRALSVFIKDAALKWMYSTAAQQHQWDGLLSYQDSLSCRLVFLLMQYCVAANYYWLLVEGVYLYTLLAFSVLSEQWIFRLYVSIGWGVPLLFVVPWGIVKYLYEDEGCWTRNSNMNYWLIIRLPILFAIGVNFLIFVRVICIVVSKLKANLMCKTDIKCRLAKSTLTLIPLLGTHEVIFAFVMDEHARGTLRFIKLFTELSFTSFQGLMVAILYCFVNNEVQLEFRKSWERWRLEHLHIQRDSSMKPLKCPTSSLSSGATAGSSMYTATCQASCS
# Description: as §1
# [3] = biological target: T3, human glucagon receptor (hGLUC R) (Homo sapiens, UniProt P47871); test: cAMP response (HTRF) of HEK-293 cells stably expressing human glucagon receptor; format: cell-based; conditions: Table 7; cAMP formation
# T3 construct: expressed in transfected cells
# T3 sequence (P47871 26-477): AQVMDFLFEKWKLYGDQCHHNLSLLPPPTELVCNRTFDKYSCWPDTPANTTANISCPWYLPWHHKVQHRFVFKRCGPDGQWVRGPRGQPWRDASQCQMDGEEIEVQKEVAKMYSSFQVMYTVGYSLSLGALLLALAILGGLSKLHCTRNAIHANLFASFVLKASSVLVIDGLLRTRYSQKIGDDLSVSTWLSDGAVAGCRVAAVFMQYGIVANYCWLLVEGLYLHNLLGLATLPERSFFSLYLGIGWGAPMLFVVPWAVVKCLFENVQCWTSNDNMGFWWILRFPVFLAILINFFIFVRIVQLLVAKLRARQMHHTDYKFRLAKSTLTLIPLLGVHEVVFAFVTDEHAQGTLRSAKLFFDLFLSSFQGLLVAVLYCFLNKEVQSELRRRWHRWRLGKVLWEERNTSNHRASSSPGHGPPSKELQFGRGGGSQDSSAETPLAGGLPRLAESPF
# Description: as §1
# [4] = Chemical stability in solution, 7 days at 25° C., % remaining peptide; format: physicochemical; conditions: % remaining peptide after 7 days at 25° C.
# Description: The chemical stability is expressed as “% remaining peptide”.
# (§2) Solubility and chemical stability of peptidic compounds were assessed as described in Methods.
# [5] = Pharmacokinetic testing in mice, s.c., LC/MS of plasma; format: in vivo; conditions: mouse, sc, 1 mg/kg s.c.
# Description: Mice were dosed 1 mg/kg subcutaneously (s.c.).
# Pharmacokinetic profiles were determined as described in Methods.
# [6] = test system: non-fasted female diabetic dbdb-mice; test: Glucose lowering in non-fasted female diabetic dbdb-mice; format: in vivo; conditions: 3 μg/kg s.c., at 240 min, kept to 480 min, baseline 20-22 mmol/l
# Source text: Female diabetic dbdb-mice of mean non-fasted glucose value of 20-22 mmol/l and a body weight of 42 g+/−0.6 g (SEM) were used. Mice were individually marked and were adapted to housing conditions for at least one week.
# 3-5 days prior to study start mice were assigned to groups and cages (4 mice per cage, 8 per group, control group 16) according to their non-fasted glucose values to ensure even distribution of lower and higher values between groups (stratification). On the study day, mice were weighed and dosed (t=0). Immediately prior to compound administration feed was removed while water remained available, and a first blood sample at a tail incision was drawn (baseline). Further blood samples were drawn at the tail incision at 30, 60, 90, 120, 240, 360, and 480 min.
# Statistical analyses are performed with Everstat Version 6.0 based on SAS by 2-way-ANOVA on repeated measures, followed by Dunnett's post-hoc test against vehicle-control. Differences are considered statistically significant at the p<0.05 level.
# [7] = Solubility testing in buffer, HPLC-UV of supernatant; format: physicochemical; conditions: buffer, target concentration 1.0 mg/mL
# Description: as §2
SMILES,EC50 [1] [nM],EC50 [2] [nM],EC50 [3] [nM],Stability (pH 4.5) ([4]; pH 4.5) [%],Stability (pH 7.4) ([4]; pH 7.4) [%],Cmax [5] [ng/mL],half-life [5] [h],"maximal effect, glucose reduction [6] [mmol/L]","solubility at 2 h ([7]; pH 4.5, read-out: Solubility (pH 4.5)) [µg/mL]","solubility at 2 h ([7]; pH 7.4, read-out: Solubility (pH 7.4)) [µg/mL]"
"CCCCCCCCCCCCCCCC(=O)N[C@@H](CCC(=O)NCCCC[C@H](NC(=O)[C@H](CCC(N)=O)NC(=O)[C@@H](NC(=O)[C@H](CO)NC(=O)[C@H](CC(C)C)NC(=O)[C@H](CC(=O)O)NC(=O)[C@H](CO)NC(=O)[C@@H](NC(=O)[C@H](Cc1ccccc1)NC(=O)[C@@H](NC(=O)CNC(=O)[C@H](CCC(=O)O)NC(=O)C(C)(C)NC(=O)[C@@H](N)Cc1ccc(O)cc1)[C@@H](C)O)[C@@H](C)O)[C@@H](C)CC)C(=O)N[C@@H](CCC(=O)O)C(=O)N[C@@H](CCC(=O)O)C(=O)N[C@@H](CCCNC(=N)N)C(=O)N[C@@H](C)C(=O)N[C@@H](C)C(=O)N[C@](C)(CCCCN)C(=O)N[C@@H](CCC(=O)O)C(=O)N[C@@H](Cc1ccccc1)C(=O)N[C@H](C(=O)N[C@@H](CCC(=O)O)C(=O)N[C@@H](Cc1c[nH]c2ccccc12)C(=O)N[C@@H](CC(C)C)C(=O)N[C@@H](CCCCN)C(=O)N[C@@H](CC(N)=O)C(=O)N[C@H](C(=O)NCC(=O)N1CCC[C@H]1C(=O)N[C@@H](CO)C(=O)N[C@@H](CO)C(=O)NCC(=O)N[C@@H](C)C(=O)N1CCC[C@H]1C(=O)N1CCC[C@H]1C(=O)N1CCC[C@H]1C(=O)N[C@@H](CO)C(N)=O)[C@@H](C)O)[C@@H](C)CC)C(=O)O [SEQ ID NO: 9, Y-Aib-E-G-T-F-T-S-D-L-S-I-Q-K(γE-x53)-E-E-R-A-A-(R)MeLys-E-F-I-E-W-L-K-N-T-G-P-S-S-G-A-P-P-P-S-NH2] (H-Y[Aib]EGTFTSDLSIQK([γGlu-Palmitoyl])EERAA[d(αMeK)]EFIEWLKNTGPSSGAPPPS-NH2)",0.0932,0.0135,> 1000,–,–,–,–,–,–,–
"CCCCCCCCCCCCCCCCCC(=O)N[C@@H](CCC(=O)NCCCC[C@H](NC(=O)[C@H](CCC(N)=O)NC(=O)[C@@H](NC(=O)[C@H](CO)NC(=O)[C@H](CC(C)C)NC(=O)[C@H](CC(=O)O)NC(=O)[C@H](CO)NC(=O)[C@@H](NC(=O)[C@H](Cc1ccccc1)NC(=O)[C@@H](NC(=O)CNC(=O)[C@H](CCC(N)=O)NC(=O)C(C)(C)NC(=O)[C@@H](N)Cc1ccc(O)cc1)[C@@H](C)O)[C@@H](C)O)[C@@H](C)CC)C(=O)N[C@@H](CC(=O)O)C(=O)N[C@@H](CCC(=O)O)C(=O)N[C@@H](CCC(N)=O)C(=O)N[C@@H](CCCNC(=N)N)C(=O)N[C@@H](C)C(=O)N[C@@](C)(CCCN)C(=O)N[C@@H](CCC(=O)O)C(=O)N[C@@H](Cc1ccccc1)C(=O)N[C@H](C(=O)N[C@@H](CCC(=O)O)C(=O)N[C@@H](Cc1c[nH]c2ccccc12)C(=O)N[C@@H](CC(C)C)C(=O)N[C@@H](CCCCN)C(=O)N[C@@H](C)C(=O)NCC(=O)NCC(=O)N1CCC[C@H]1C(=O)N[C@@H](CO)C(=O)N[C@@H](CO)C(=O)NCC(=O)N[C@@H](C)C(=O)N1CCC[C@H]1C(=O)N1CCC[C@H]1C(=O)N1CCC[C@H]1C(=O)N[C@@H](CO)C(N)=O)[C@@H](C)CC)C(=O)O [SEQ ID NO: 15, Y-Aib-Q-G-T-F-T-S-D-L-S-I-Q-K(γE-x70)-D-E-Q-R-A-(S)MeOrn-E-F-I-E-W-L-K-A-G-G-P-S-S-G-A-P-P-P-S-NH2] (H-Y[Aib]QGTFTSDLSIQK([γGlu-Stearoyl])DEQRA[αMeOrn]EFIEWLKAGGPSSGAPPPS-NH2)",0.0089,0.0161,–,98.0,98.0,3740,2.9,~12,> 1000,> 1000
